Data on 13 molecules can be found in patent US20230304058A1, “NOVEL 5'CAP ANALOG HAVING CAP2 STRUCTURE AND PREPARATION METHOD THEREFOR” (Shenzhen Rhegen Biotechnology Co., Ltd., priority 2020, published 2023).

Data set [1] concerns the target T7 Enzyme Mix (Escherichia phage T7, UniProt P00573). In words: In vitro transcription mRNA synthesis with cap analog, reaction yield. It is filed as biochemical. The note with it: per ml transcription reaction system; 37° C. for 6 h; LiCl purification. How it is done: 1. Before synthesizing mRNA, linearize the plasmid with Notl, digested at […] overnight;
2. Extract with DNA template;
React at 37° C. for 6 h. Digest with TURBO DNase for 15 min.
4. Purify the transcription products using LiCl solution and calculate the reaction yields.

The test system of data set [2] is TLR3, TLR7, TLR8 and RIG-1. Nature of the data set: Intracellular immunogenicity of capped mRNA by RNA immunoprecipitation and quantitative PCR. The note with it: relative to ARCA; Human-derived PBMC cells, 5 μg mRNA, Lipofectamine 2000, 24 h. It is filed as cell-based. How it is done:
Experimental methods: the intracellular immunoproteins TLR3, TLR7, TLR8 and RIG-1 were immunoprecipitated together with their bound RNAs by RNA immunoprecipitation, and finally these mRNAs were identified by real-time quantitative PCR, and their relative abundance was proportional to their immunogenicity.
The cells were collected by trypsin digestion 24 h later and resuspended in PBS, centrifuged, and collected.
Fixative was added to the cells, and after 15 minutes glycine was added for termination of fixation, followed by centrifugation to collect the cells. Cells were resuspended by adding lysate, incubated on ice at 4° C. for 30 min, centrifuged at 2400 g for 10 min, and the supernatant was collected.
TLR3, TLR7, TLR8 and RIG-1 antibodies (2-10 μg) were added to the supernatant (6-10 mg) followed by gentle incubation at 4° C. for 2 hours. Protein AIG beads (40 μL) were then added to them and incubated gently for 1 h at 4° C.
Centrifuge at 2500 rpm for 30 seconds with precipitated magnetic beads and remove the supernatant. Resuspend the beads in 500 μL of RIP buffer. Wash in RIP buffer a total of three times, followed by one wash in PBS.
Resuspend magnetic beads in TRIzol RNA Extraction Reagent (1 mL) and isolate co-precipitated RNA, and then elute RNA using nuclease-free water (20 μL).
6. Reverse transcribe (RT) the RNA into cDNA and design primers according to the mRNA sequence for quantitative PCR analysis. mRNA immunogenicity is proportional to the number of mRNA copies precipitated by magnetic beads.

Data set [3] deals with mRNA. In words: mRNA capping rate by RNase H cleavage and LC-MS. It is filed as biochemical. The note with it: ratio of capped and uncapped mRNA. From the text: The mRNA molecules with different Cap structures obtained in Example 1 were subjected to enzymatic cleavage, and the ratio of capped and uncapped mRNA molecules could be determined in a liquid chromatography-mass spectrometry analysis experiment.
1. Concentrate the beads using a magnet, aspirate the supernatant storage solution, and add an equal volume of 0.1 M NaOH +0.05 M NaCl;
2. Aspirate the supernatant and resuspend the beads with an equal volume of 0.1 M NaCl, keep the concentration constant;
3. Anneal mRNA and cleavage tags, configure the following reaction system;
Gradient annealing: 95° C. 5 min
4. Combining cleavage tags with beads • Beads were centrifuged at 15,000 g for 5 min, and the supernatant was removed, then 120 μl of annealed mRNA and tags were added and incubated for 30 min at room temperature, during which time they were gently shaken to ensure adequate binding.
5. Enzyme cleavage using RNase H; • Add 10 μl RNase H and incubate at 37° C. for 3 h. Precipitate the beads with magnet and discard the supernatant. • Add 100 μl washing buffer, mix thoroughly, magnet precipitate for 2 min, and discard the supernatant. Repeat 3 times. • Wash with DI water for 3 times.
6. Hydrolysis with RppH; • Use 10 units RppH in nebuffer 2 to hydrolyze at room temperature for 1 h.
DI water was aspirated, 100 μl of 75% ethanol preheated to 80° C. was added, incubat for 3 min, and magnet precipitat for 3 min. The supernatant was taken, followed by evaporating, and centrifuge for 45 min to a volume of 10 μl. Finally, the sample was resuspended in 50 μl of […] EDTA/1% MeOH and left for LC-MS analysis.
9. the mRNA capping rate of different Cap analogs synthesized was analyzed with LC-MS.

T7 Enzyme Mix, sequence (P00573 whole entry): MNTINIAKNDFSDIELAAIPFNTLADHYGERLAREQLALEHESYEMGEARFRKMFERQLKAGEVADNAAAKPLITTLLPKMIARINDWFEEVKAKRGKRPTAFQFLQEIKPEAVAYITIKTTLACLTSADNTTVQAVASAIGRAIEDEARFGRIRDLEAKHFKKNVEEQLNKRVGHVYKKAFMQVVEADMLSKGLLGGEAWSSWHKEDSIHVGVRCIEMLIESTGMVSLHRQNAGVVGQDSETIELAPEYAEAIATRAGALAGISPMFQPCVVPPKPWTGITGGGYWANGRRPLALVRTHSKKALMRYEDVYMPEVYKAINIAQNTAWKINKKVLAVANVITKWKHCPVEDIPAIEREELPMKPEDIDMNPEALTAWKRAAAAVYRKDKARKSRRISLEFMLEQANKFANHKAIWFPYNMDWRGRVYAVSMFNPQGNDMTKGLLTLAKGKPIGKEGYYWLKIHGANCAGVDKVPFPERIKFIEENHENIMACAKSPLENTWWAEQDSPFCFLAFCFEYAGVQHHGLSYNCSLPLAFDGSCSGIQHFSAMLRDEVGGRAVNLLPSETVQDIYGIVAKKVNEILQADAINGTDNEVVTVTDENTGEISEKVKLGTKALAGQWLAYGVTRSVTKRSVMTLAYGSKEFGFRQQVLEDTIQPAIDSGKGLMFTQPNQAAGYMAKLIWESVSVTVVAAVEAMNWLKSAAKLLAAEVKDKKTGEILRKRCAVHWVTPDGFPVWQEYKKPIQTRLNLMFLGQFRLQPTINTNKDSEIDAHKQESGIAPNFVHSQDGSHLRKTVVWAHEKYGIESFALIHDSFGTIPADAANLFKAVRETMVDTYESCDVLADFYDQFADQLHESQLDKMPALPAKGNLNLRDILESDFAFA

Consider `CO[C@@H]1[C@H](OP(=O)(O)OC[C@H]2O[C@@H](n3cnc4c(N)ncnc43)[C@H](OC)[C@@H]2O)[C@@H](COP(=O)(O)OP(=O)(O)OP(=O)([O-])OC[C@H]2O[C@@H](n3c[n+](C)c4c(=O)[nH]c(N)nc43)[C@H](O)[C@@H]2O)O[C@H]1n1ccc(N)nc1=O` [Cap analog 7, m7G(5′)ppp(5′)(2′OMeC)p(2′OMeA)], for which the “Mass of final product obtained from 1 ml mRNA synthesis reaction system” value (“Mass of final product obtained” below) in data set [1] is 5.3 mg. The “Intracellular immunogenicity of mRNA when using different Cap structures” value in data set [2] is 0.24. Further, the “mRNA capping rates when using different Cap structures” value in data set [3] came to 94.76%.
The matching figures for `CO[C@@H]1[C@H](O)[C@@H](COP(=O)(O)O[C@H]2[C@@H](OC)[C@H](n3cnc4c(N)ncnc43)O[C@@H]2COP(=O)(O)OP(=O)(O)OP(=O)([O-])OC[C@H]2O[C@@H](n3c[n+](C)c4c(=O)[nH]c(N)nc43)[C@H](O)[C@@H]2O)O[C@H]1n1cnc2c(=O)[nH]c(N)nc21` [Cap analog 1, m7G(5′)ppp(5′)(2′OMeA)p(2′OMeG)]: 4.5 mg, 0.40 and 94.91%.
The matching figures for `CO[C@@H]1[C@H](O)[C@@H](COP(=O)(O)O[C@H]2[C@@H](OC)[C@H](n3cnc4c(N)ncnc43)O[C@@H]2COP(=O)(O)OP(=O)(O)OP(=O)([O-])OC[C@H]2O[C@@H](n3c[n+](C)c4c(=O)[nH]c(N)nc43)[C@H](O)[C@@H]2OC)O[C@H]1n1ccc(N)nc1=O` [Cap analog 25, 3-O-Me-m7G(5′)ppp(5′)(2′OMeA)p(2′OMeC)]: 4.1 mg, 0.29 and 94.8%.
Consider `CO[C@@H]1[C@H](OP(=O)(O)OC[C@H]2O[C@@H](n3cnc4c(=O)[nH]c(N)nc43)[C@H](OC)[C@@H]2O)[C@@H](COP(=O)(O)OP(=O)(O)OP(=O)([O-])OC[C@H]2O[C@@H](n3c[n+](C)c4c(=O)[nH]c(N)nc43)[C@H](O)[C@@H]2OC)O[C@H]1n1ccc(N)nc1=O` [Cap analog 19, 3-O-Me-m7G(5′)ppp(5′)(2′OMeC)p(2′OMeG)], for which, in data set [1], the “Mass of final product obtained” value came out at 4.4 mg. Besides, the “Intracellular immunogenicity of mRNA when using different Cap structures” value in data set [2] was found to be 0.26. For the same molecule, in data set [3], the “mRNA capping rates when using different Cap structures” value is given as 95%.
As for `CO[C@@H]1[C@H](O)[C@@H](COP(=O)(O)O[C@H]2[C@@H](OC)[C@H](n3cnc4c(=O)[nH]c(N)nc43)O[C@@H]2COP(=O)(O)OP(=O)(O)OP(=O)([O-])OC[C@H]2O[C@@H](n3c[n+](C)c4c(=O)[nH]c(N)nc43)[C@H](O)[C@@H]2O)O[C@H]1n1cnc2c(=O)[nH]c(N)nc21` [Cap analog 2, m7G(5′)ppp(5′)(2′OMeG)p(2′OMeG)], in data set [1], the “Mass of final product obtained” value came out at 4.9 mg. Further, in data set [2], the “Intracellular immunogenicity of mRNA when using different Cap structures” value worked out at 0.37. Also, in data set [3], the “mRNA capping rates when using different Cap structures” value was determined as 95.1%.
Take `CO[C@@H]1[C@H](O)[C@@H](COP(=O)(O)O[C@H]2[C@@H](OC)[C@H](n3cnc4c(=O)[nH]c(N)nc43)O[C@@H]2COP(=O)(O)OP(=O)(O)OP(=O)([O-])OC[C@H]2O[C@@H](n3c[n+](C)c4c(=O)[nH]c(N)nc43)[C@H](O)[C@@H]2OC)O[C@H]1n1ccc(N)nc1=O` [Cap analog 26, 3-O-Me-m7G(5′)ppp(5′)(2′OMeG)p(2′OMeC)]: in data set [1], the “Mass of final product obtained” value amounted to 4.6 mg. For the same molecule, the “Intracellular immunogenicity of mRNA when using different Cap structures” value in data set [2] amounted to 0.49. The “mRNA capping rates when using different Cap structures” value in data set [3] worked out at 94.97%.
For `CO[C@@H]1[C@H](O)[C@@H](COP(=O)(O)O[C@H]2[C@@H](OC)[C@H](n3cnc4c(N)ncnc43)O[C@@H]2COP(=O)(O)OP(=O)(O)OP(=O)([O-])OC[C@H]2O[C@@H](n3c[n+](C)c4c(=O)[nH]c(N)nc43)[C@H](O)[C@@H]2OC)O[C@H]1n1ccc(=O)[nH]c1=O` [Cap analog 29, 3-O-Me-m7G(5′)ppp(5′)(2′OMeA)p(2′OMeU)] the same measures were 5.3 mg, 0.27 and 94.93%.
The matching figures for `CO[C@@H]1[C@H](O)[C@@H](COP(=O)(O)O[C@H]2[C@@H](OC)[C@H](n3cnc4c(=O)[nH]c(N)nc43)O[C@@H]2COP(=O)(O)OP(=O)(O)OP(=O)([O-])OC[C@H]2O[C@@H](n3c[n+](C)c4c(=O)[nH]c(N)nc43)[C@H](O)[C@@H]2O)O[C@H]1n1ccc(N)nc1=O` [Cap analog 10, m7G(5′)ppp(5′)(2′OMeG)p(2′OMeC)]: 6.0 mg, 0.18 and 94.93%.
For `CO[C@@H]1[C@H](O)[C@@H](COP(=O)(O)O[C@H]2[C@@H](OC)[C@H](n3ccc(N)nc3=O)O[C@@H]2COP(=O)(O)OP(=O)(O)OP(=O)([O-])OC[C@H]2O[C@@H](n3c[n+](C)c4c(=O)[nH]c(N)nc43)[C@H](O)[C@@H]2O)O[C@H]1n1ccc(N)nc1=O` [Cap analog 11, m7G(5′)ppp(5′)(2′OMeC)p(2′OMeC)] the same measures were 4.7 mg, 0.31 and 95.2%.
As to `CO[C@@H]1[C@H](O)[C@@H](COP(=O)(O)O[C@H]2[C@@H](OC)[C@H](n3ccc(N)nc3=O)O[C@@H]2COP(=O)(O)OP(=O)(O)OP(=O)([O-])OC[C@H]2O[C@@H](n3c[n+](C)c4c(=O)[nH]c(N)nc43)[C@H](O)[C@@H]2OC)O[C@H]1n1ccc(N)nc1=O` [Cap analog 27, 3-O-Me-m7G(5′)ppp(5′)(2′OMeC)p(2′OMeC)], in data set [1], the “Mass of final product obtained” value was 4.7 mg. The “Intracellular immunogenicity of mRNA when using different Cap structures” value in data set [2] amounted to 0.09. Further, the “mRNA capping rates when using different Cap structures” value in data set [3] is on record as 94.88%.
For `CO[C@@H]1[C@H](O)[C@@H](COP(=O)(O)O[C@H]2[C@@H](OC)[C@H](n3cnc4c(=O)[nH]c(N)nc43)O[C@@H]2COP(=O)(O)OP(=O)(O)OP(=O)([O-])OC[C@H]2O[C@@H](n3c[n+](C)c4c(=O)[nH]c(N)nc43)[C@H](O)[C@@H]2OC)O[C@H]1n1cnc2c(N)ncnc21` [Cap analog 22, 3-O-Me-m7G(5′)ppp(5′)(2′OMeG)p(2′OMeA)] the same measures were 4.6 mg, 0.29 and 94.83%.
For `CO[C@@H]1[C@H](O)[C@@H](COP(=O)(O)O[C@H]2[C@@H](OC)[C@H](n3cnc4c(N)ncnc43)O[C@@H]2COP(=O)(O)OP(=O)(O)OP(=O)([O-])OC[C@H]2O[C@@H](n3c[n+](C)c4c(=O)[nH]c(N)nc43)[C@H](O)[C@@H]2OC)O[C@H]1n1cnc2c(N)ncnc21` [Cap analog 21, 3-O-Me-m7G(5′)ppp(5′)(2′OMeA)p(2′OMeA)] the same measures were 4.8 mg, 0.15 and 94.55%.
The matching figures for `CO[C@@H]1[C@H](OP(=O)(O)OC[C@H]2O[C@@H](n3cnc4c(N)ncnc43)[C@H](OC)[C@@H]2O)[C@@H](COP(=O)(O)OP(=O)(O)OP(=O)([O-])OC[C@H]2O[C@@H](n3c[n+](C)c4c(=O)[nH]c(N)nc43)[C@H](O)[C@@H]2O)O[C@H]1n1ccc(=O)[nH]c1=O` [Cap analog 8, m7G(5′)ppp(5′)(2′OMeU)p(2′OMeA)]: 5.3 mg, 0.31 and 94.79%.
